Results published in BigSolDB 2.1.

O=C1c2ccccc2-c2ccc(Br)cc21
solubility (mole fraction)
Settings | in 1,4-dioxane | in acetonitrile | in ethanol | in ethyl acetate | in isopropanol | in methanol | in methyl acetate | in n-butanol | in n-butyl acetate | in n-propanol
278.15 K | – | 0.000793 | 0.000435 | 0.00515 | 0.000365 | 0.000214 | 0.00408 | 0.000924 | 0.00637 | 0.0006
283.15 K | 0.0136 | 0.001 | 0.000546 | 0.00603 | 0.000477 | 0.000265 | 0.00517 | 0.00119 | 0.00757 | 0.000747
288.15 K | 0.0167 | 0.00122 | 0.000674 | 0.00732 | 0.000604 | 0.000329 | 0.00608 | 0.00148 | 0.00911 | 0.000915
293.15 K | 0.0199 | 0.00152 | 0.000831 | 0.00865 | 0.000765 | 0.00042 | 0.00738 | 0.0018 | 0.0113 | 0.00116
298.15 K | 0.0241 | 0.00188 | 0.00101 | 0.0102 | 0.000969 | 0.000529 | 0.00882 | 0.00221 | 0.0136 | 0.00143
303.15 K | 0.0284 | 0.00227 | 0.00123 | 0.012 | 0.0012 | 0.00066 | 0.0105 | 0.00268 | 0.016 | 0.00173
308.15 K | 0.0334 | 0.00273 | 0.00146 | 0.0136 | 0.00148 | 0.000828 | 0.0123 | 0.00328 | 0.019 | 0.00208
313.15 K | 0.0391 | 0.00327 | 0.00174 | 0.016 | 0.00183 | 0.00102 | 0.0144 | 0.00393 | 0.0221 | 0.0025
318.15 K | 0.0455 | 0.00389 | 0.00205 | 0.0183 | 0.00224 | 0.00127 | 0.0168 | 0.00466 | 0.0259 | 0.00297
323.15 K | 0.0527 | 0.0046 | 0.00239 | 0.0212 | 0.0027 | 0.00157 | 0.0193 | 0.00553 | 0.03 | 0.0035
